Measured values: patent US20090192308A1, “1,5-DIHYDRO-2H-PYRROL-2-ONE TRICYCLIC DERIVATIVES HAVING ANTI-INFECTIVE ACTIVITY” (CPC BIOTECH S. r.l., priority 2008, published 2009)
Values after ≈ are worked out from the molar mass of the structure shown. “Also recorded” adds a separate entry of the source.

Tests used:
[1] = tested on: Acinetobacter baumannii MDR; assay: agar spot / disk diffusion plate method; type: cell-based; details: spot 10 μl, inoculum 10^8 CFU/ml, (Io) and (Ir) 100 mM, average of three points
Procedure: (§1) The antimicrobial activity of the substances (Ii), (Il), (Im), (In), (Io), (Ip), (Iq), (Ir), (Is) was evaluated towards 11 clinically isolated Gram-negative and Gram-positive bacterial strains, mostly multi-antibiotic resistant (MDR), and towards two types of yeast of the genus Candida.
(§2) A plate method was used (agar spot method or disk diffusion assay—spot quantity 10 μl, bacterial inoculum 10^8 CFU/ml and DMSO negative control): the (Io) and (Ir) concentration used was 100 mM. The antimicrobial activity was evaluated by measuring the diameter of the microbial growth inhibition halo expressed in millimetres, the reported values being the average of three experimental points.

Candida albicans = assay: agar spot / disk diffusion plate method; type: cell-based; details: spot 10 μl, inoculum 10^8 CFU/ml, (Io) and (Ir) 100 mM, average of three points
Procedure: as §1, §2

Candida parapsilosis = assay: agar spot / disk diffusion plate method; type: cell-based; details: spot 10 μl, inoculum 10^8 CFU/ml, (Io) and (Ir) 100 mM, average of three points
Procedure: as §1, §2

[2] = tested on: Enterococcus faecalis MDR; assay: agar spot / disk diffusion plate method; type: cell-based; details: spot 10 μl, inoculum 10^8 CFU/ml, (Io) and (Ir) 100 mM, average of three points
Procedure: as §1, §2

Enterococcus faecium MDR = assay: agar spot / disk diffusion plate method; type: cell-based; details: spot 10 μl, inoculum 10^8 CFU/ml, (Io) and (Ir) 100 mM, average of three points
Procedure: as §1, §2

Escherichia coli = assay: agar spot / disk diffusion plate method; type: cell-based; details: spot 10 μl, inoculum 10^8 CFU/ml, (Io) and (Ir) 100 mM, average of three points
Procedure: as §1, §2

Klebsiella oxytoca = assay: agar spot / disk diffusion plate method; type: cell-based; details: spot 10 μl, inoculum 10^8 CFU/ml, (Io) and (Ir) 100 mM, average of three points
Procedure: as §1, §2

Klebsiella pneumonite = assay: agar spot / disk diffusion plate method; type: cell-based; details: spot 10 μl, inoculum 10^8 CFU/ml, (Io) and (Ir) 100 mM, average of three points
Procedure: as §1, §2

[3] = tested on: Pseudomonas aeruginosa MDR; assay: agar spot / disk diffusion plate method; type: cell-based; details: spot 10 μl, inoculum 10^8 CFU/ml, (Io) and (Ir) 100 mM, average of three points
Procedure: as §1, §2

Salmonella spp. = assay: agar spot / disk diffusion plate method; type: cell-based; details: spot 10 μl, inoculum 10^8 CFU/ml, (Io) and (Ir) 100 mM, average of three points
Procedure: as §1, §2

Serratia marcescens = assay: agar spot / disk diffusion plate method; type: cell-based; details: spot 10 μl, inoculum 10^8 CFU/ml, (Io) and (Ir) 100 mM, average of three points
Procedure: as §1, §2

[4] = tested on: Staphylococcus aureus MRSA; assay: agar spot / disk diffusion plate method; type: cell-based; details: spot 10 μl, inoculum 10^8 CFU/ml, (Io) and (Ir) 100 mM, average of three points
Procedure: as §1, §2

[5] = tested on: Staphylococcus haemolyticus MDR; assay: agar spot / disk diffusion plate method; type: cell-based; details: spot 10 μl, inoculum 10^8 CFU/ml, (Io) and (Ir) 100 mM, average of three points
Procedure: as §1, §2

[6] = tested on: methicillin-resistant Staphylococcus aureus strain (MRSA); assay: MIC by microdilutions in broth; type: cell-based
Procedure: The minimum inhibitory concentration (MIC) of the substances (Io) and (Ir) towards the methicillin-resistant Staphylococcus aureus strain (MRSA) was then evaluated by the method of microdilutions in broth: it should be noted that Staphylococcus aureus (MRSA) is one of the main multi-resistant bacteria causing serious problems in hospitals. The measured MICs were 6.25 mmol/l and 1.56 mmol/l for (Io) and (Ir) respectively.

[7] = tested on: 11 clinically isolated Gram-negative and Gram-positive bacterial strains, mostly MDR, and two types of yeast of the genus Candida; assay: antimicrobial activity towards clinical isolates and yeasts (overall); type: cell-based; details: pathogens resistant to β-lactam antibiotics or multi-drug resistant, and yeasts
Procedure: as §1, §2

[8] = compared with taurine and hypotaurine; cited from earlier work
[9] = in vivo biological studies, cited from earlier work

| Structure (SMILES) | diameter of the microbial growth inhibition halo [1] | diameter of the microbial growth inhibition halo (Candida albicans) | diameter of the microbial growth inhibition halo (Candida parapsilosis) | diameter of the microbial growth inhibition halo (Escherichia coli) | diameter of the microbial growth inhibition halo [3] | diameter of the microbial growth inhibition halo (Salmonella spp.) | diameter of the microbial growth inhibition halo [4] | diameter of the microbial growth inhibition halo [5] | antibiotic activity (in words) [7] | also measured |
| --- | --- | --- | --- | --- | --- | --- | --- | --- | --- | --- |
| CC(C)=CCN1CCSC2=C1C(=O)N1CCSCC21 (stereo not drawn) [Io] | 11 millimetres | 10 millimetres | 8 millimetres | 12 millimetres | 11 millimetres | 10 millimetres | 11.4 millimetres | 13 millimetres | have shown antibiotic activity | diameter of the microbial growth inhibition halo [2]: 9 millimetres; diameter of the microbial growth inhibition halo (Enterococcus faecium MDR): 8 millimetres; diameter of the microbial growth inhibition halo (Klebsiella oxytoca): 8.6 millimetres; diameter of the microbial growth inhibition halo (Klebsiella pneumonite): 10 millimetres; diameter of the microbial growth inhibition halo (Serratia marcescens): 7 millimetres; minimum inhibitory concentration (MIC) [6]: 6.25 mM (≈ 1850 µg/mL) |
| CCN1CCSC2=C1C(=O)N1CCSCC21 (stereo not drawn) [Il] | – | – | – | – | – | – | – | – | have shown antibiotic activity | – |
| O=C1C2=C(SCCN2CCc2ccccc2)C2CSCCN12 (stereo not drawn) [Iq] | – | – | – | – | – | – | – | – | have shown antibiotic activity | – |
| CC(C)N1CCSC2=C1C(=O)N1CCSCC21 (stereo not drawn) [In] | – | – | – | – | – | – | – | – | have shown antibiotic activity | – |
| CC(C)=CCC/C(C)=C/CN1CCSC2=C1C(=O)N1CCSCC21 (stereo not drawn) [Ir] | 13 millimetres | 13 millimetres | 9.8 millimetres | 12 millimetres | 12 millimetres | 11 millimetres | 18.6 millimetres | 15 millimetres | have shown antibiotic activity; also recorded: best activity characteristics for the widest spectrum; also recorded: excellent wide spectrum antibiotic activity | diameter of the microbial growth inhibition halo [2]: 13.7 millimetres; diameter of the microbial growth inhibition halo (Enterococcus faecium MDR): 14.3 millimetres; diameter of the microbial growth inhibition halo (Klebsiella oxytoca): 9.8 millimetres; diameter of the microbial growth inhibition halo (Klebsiella pneumonite): 11.5 millimetres; diameter of the microbial growth inhibition halo (Serratia marcescens): 11 millimetres; minimum inhibitory concentration (MIC) [6]: 1.56 mM (≈ 569 µg/mL) |
| CN1CCSC2=C1C(=O)N1CCSCC21 (stereo not drawn) [Ii] | – | – | – | – | – | – | – | – | have shown antibiotic activity | – |
| O=C1C2=C(SCCN2c2ccc(-c3ccccc3)cc2)C2CSCCN12 (stereo not drawn) [Is] | – | – | – | – | – | – | – | – | have shown antibiotic activity | – |
| O=C1C2=C(SCCN2Cc2ccccc2)C2CSCCN12 (stereo not drawn) [Ip] | – | – | – | – | – | – | – | – | have shown antibiotic activity | – |
| O=C1C2=C(SCCN2)C2CSCCN12 (stereo not drawn) [Ia, 3,4,7,8,10,10a-hexahydro-2H,5H-pyrrolo[2,1-c:3,4-b′]bis[1,4]thiazin-5-one, reference compound] | 4 millimetres | 6 millimetres | 5 millimetres | <2 millimetres | <2 millimetres | 3 millimetres | 4 millimetres | <2 millimetres | – | antioxidant activity (in words) [8]: strong antioxidant activity; antioxidant properties in vivo (in words) [9]: considerable antioxidant properties; toxicity in vivo (in words) ([9]; high doses): total non-toxicity even at high doses |
| CCCN1CCSC2=C1C(=O)N1CCSCC21 (stereo not drawn) [Im] | – | – | – | – | – | – | – | – | have shown antibiotic activity | – |
